# Patent US11000033B2, “Ketone or oxime compound, and herbicide” (NISSAN CHEMICAL CORPORATION, priority 2014, dated 2021)
# What was measured:
# Type in all cases: in vivo
# Leptochloa chinensis = assay: Test Example 3: herbicidal effect by foliage application, Wagner pot (symbol D); settings: application herbicide amount 320 g/ha; for D (Leptochloa chinensis) herbicidal effect grade: Table 24
# Procedure, shortened: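 Weeds and rice were sown in alluvial soil under 0.1–0.5 cm of standing water and grown for 14 days in a 25–30 °C greenhouse. An emulsion of the compound, diluted in water to a set dose, was sprayed evenly onto the foliage. Effect was scored against fixed criteria 3 weeks after treatment.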
# rapeseed = assay: Test Example 4: effect on crop by soil treatment (symbol g); settings: application herbicide amount 320 g/ha
# Procedure, shortened: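 Greenhouse culture at 25° C. to 30° C. followed sowing of seed in spots on sterilized diluvial soil with a soil cover close to 1.5 cm thick.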
# Alopecurus myosuroides = assay: Test Example 4: herbicidal effect by soil treatment (symbol J); settings: application herbicide amount 320 g/ha
# Procedure, shortened: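 Seeds were sown in sterilized diluvial soil, covered with about 1.5 cm of soil, and the soil surface was sprayed with a water-diluted emulsion of the compound at a predetermined rate. Plants grew in a greenhouse at 25° C. to 30° C.; effects were scored visually 3 weeks after application.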
SMILES,"herbicidal effect on D (Leptochloa chinensis), grade 0-5 (Leptochloa chinensis)","g: rapeseed, effect on crop grade (rapeseed)","J: Alopecurus myosuroides, herbicidal effect grade (Alopecurus myosuroides)","Effect on crop grade, g: rapeseed (rapeseed)","Herbicidal effect grade, J: Alopecurus myosuroides (Alopecurus myosuroides)",J (Alopecurus myosuroides) herbicidal effect grade (Alopecurus myosuroides),D (Leptochloa chinensis) herbicidal effect grade (Leptochloa chinensis)
CON=C(C)CC1CC(O)=C(c2c(C)cc(Oc3ccccc3)cc2C)C1=O (centres unmarked) [6-052],5 (Herbicidal ratio of 90% or more (almost completely withered)),3 (Herbicidal ratio of 40% or higher and lower than 70%),0 (Herbicidal ratio of 5% or lower (almost no effect)),–,–,–,–
CON=C(C)CC1CC(O)=C(c2c(C)cc(-c3ccc(OC(F)(F)F)cc3)cc2C)C1=O (mixture of isomers) [6-056],5 (Herbicidal ratio of 90% or more (almost completely withered)),0 (Herbicidal ratio of 5% or lower (almost no effect)),0 (Herbicidal ratio of 5% or lower (almost no effect)),–,–,–,–
CCc1cc(Br)cc(C)c1C1=C(O)CC(C(C(C)=O)C(=O)OC)C1=O (centres unmarked) [7-001],5 (Herbicidal ratio of 90% or more (almost completely withered)),–,–,0 (Herbicidal ratio of 5% or lower (almost no effect)),0 (Herbicidal ratio of 5% or lower (almost no effect)),–,–
CON=C(C)CC1CC(O)=C(c2c(C)cc(-c3ccccn3)cc2C)C1=O (mixture of isomers) [6-051],5 (Herbicidal ratio of 90% or more (almost completely withered)),4 (Herbicidal ratio of 70% or higher and lower than 90%),5 (Herbicidal ratio of 90% or more (almost completely withered)),–,–,–,–
CON=C(C)CC1CC(OC(=O)N2CCOCC2)=C(c2c(C)cc(C)cc2OC)C1=O (centres unmarked) [6-094],5 (Herbicidal ratio of 90% or more (almost completely withered)),–,–,4 (Herbicidal ratio of 70% or higher and lower than 90%),5 (Herbicidal ratio of 90% or more (almost completely withered)),–,–
CON=C(C)CC1CC(O)=C(c2c(C)cc(OCc3ccncc3)cc2C)C1=O (mixture of isomers) [6-053],5 (Herbicidal ratio of 90% or more (almost completely withered)),0 (Herbicidal ratio of 5% or lower (almost no effect)),0 (Herbicidal ratio of 5% or lower (almost no effect)),–,–,–,–
CC(CC1CC(O)=C(c2c(C)cc(C)cc2C)C1=O)=NOCc1ccccn1 (centres unmarked) [1-022],5 (Herbicidal ratio of 90% or more (almost completely withered)),–,–,–,–,5 (Herbicidal ratio of 90% or more (almost completely withered)),–
CON=C(C)CC1CC(OC(=O)COc2ccccc2)=C(c2c(C)cc(-c3ccc(Cl)cc3)cc2C)C1=O (mixture of isomers) [6-061],5 (Herbicidal ratio of 90% or more (almost completely withered)),3 (Herbicidal ratio of 40% or higher and lower than 70%),5 (Herbicidal ratio of 90% or more (almost completely withered)),–,–,–,–
CON=C(C)CC1CC(O)=C(c2c(C)cc(-c3ccc(Cl)cc3F)cc2C)C1=O (centres unmarked) [6-084],5 (Herbicidal ratio of 90% or more (almost completely withered)),1 (Herbicidal ratio of 5% or higher and lower than 20%),5 (Herbicidal ratio of 90% or more (almost completely withered)),–,–,–,–
CON=C(C)CC1CC(OC(=O)N2CCOCC2)=C(c2c(C)cc(-c3ccc(F)cc3)cc2C)C1=O (mixture of isomers) [6-059],5 (Herbicidal ratio of 90% or more (almost completely withered)),0 (Herbicidal ratio of 5% or lower (almost no effect)),5 (Herbicidal ratio of 90% or more (almost completely withered)),–,–,–,–
CCc1cc(Br)cc(C)c1C1=C(O)CC(CC(C)=O)C1=O (centres unmarked) [7-003],5 (Herbicidal ratio of 90% or more (almost completely withered)),–,–,0 (Herbicidal ratio of 5% or lower (almost no effect)),5 (Herbicidal ratio of 90% or more (almost completely withered)),–,–
CC(=O)CC1CC(O)=C(c2c(C)cc(-c3ccc(C)cc3)cc2C)C1=O (centres unmarked) [7-007],5 (Herbicidal ratio of 90% or more (almost completely withered)),–,–,0 (Herbicidal ratio of 5% or lower (almost no effect)),5 (Herbicidal ratio of 90% or more (almost completely withered)),–,–
CON=C(C)CC1CC(O)=C(c2c(C)cc(-n3cccn3)cc2C)C1=O (centres unmarked) [6-073],5 (Herbicidal ratio of 90% or more (almost completely withered)),3 (Herbicidal ratio of 40% or higher and lower than 70%),2 (Herbicidal ratio of 20% or higher and lower than 40%),–,–,–,–
COc1cc(C)c(C2=C(O)CC(CC(C)=O)C2=O)c(C)c1 (centres unmarked) [7-020],5 (Herbicidal ratio of 90% or more (almost completely withered)),–,–,0 (Herbicidal ratio of 5% or lower (almost no effect)),3 (Herbicidal ratio of 40% or higher and lower than 70%),–,–
CON=C(C)CC1CC(OC(=O)N(C)C)=C(c2c(C)cc(-c3ccc(Cl)cc3)cc2C)C1=O (mixture of isomers) [6-063],5 (Herbicidal ratio of 90% or more (almost completely withered)),0 (Herbicidal ratio of 5% or lower (almost no effect)),0 (Herbicidal ratio of 5% or lower (almost no effect)),–,–,–,–
CCc1cc(-c2ccc(Cl)cc2)cc(C)c1C1=C(O)CC(CC(C)=NOC)C1=O (centres unmarked) [6-066],5 (Herbicidal ratio of 90% or more (almost completely withered)),2 (Herbicidal ratio of 20% or higher and lower than 40%),5 (Herbicidal ratio of 90% or more (almost completely withered)),–,–,–,–
CON=C(C)CC1CC(O)=C(c2c(C)cc(-c3ccc(Cl)cc3Cl)cc2C)C1=O (centres unmarked) [6-088],5 (Herbicidal ratio of 90% or more (almost completely withered)),–,–,3 (Herbicidal ratio of 40% or higher and lower than 70%),5 (Herbicidal ratio of 90% or more (almost completely withered)),–,–
CON=C(C)CC1CC(OC(=O)N2CCCC2)=C(c2c(C)cc(C)cc2OC)C1=O (centres unmarked) [6-110],5 (Herbicidal ratio of 90% or more (almost completely withered)),–,–,0 (Herbicidal ratio of 5% or lower (almost no effect)),3 (Herbicidal ratio of 40% or higher and lower than 70%),–,–
CON=C(C)CC1CC(O)=C(c2c(C)cc(-c3ccc(F)c(Cl)c3)cc2C)C1=O (centres unmarked) [6-085],5 (Herbicidal ratio of 90% or more (almost completely withered)),–,–,4 (Herbicidal ratio of 70% or higher and lower than 90%),5 (Herbicidal ratio of 90% or more (almost completely withered)),–,–
CON=C(C)CC1CC(OC(=O)COc2ccccc2)=C(c2c(C)cc(-c3ccc(Cl)cc3)cc2OC)C1=O (centres unmarked) [6-079],5 (Herbicidal ratio of 90% or more (almost completely withered)),0 (Herbicidal ratio of 5% or lower (almost no effect)),3 (Herbicidal ratio of 40% or higher and lower than 70%),–,–,–,–
CON=C(C)CC1CC(OC(=O)COc2ccccc2)=C(c2c(C)cc(-c3ccccc3)cc2OC)C1=O (centres unmarked) [6-100],5 (Herbicidal ratio of 90% or more (almost completely withered)),–,–,5 (Herbicidal ratio of 90% or more (almost completely withered)),5 (Herbicidal ratio of 90% or more (almost completely withered)),–,–
CON=C(C)C(=NOC)C1CC(O)=C(c2c(C)cc(C)cc2C)C1=O (centres unmarked) [8-003],–,–,–,0 (Herbicidal ratio of 5% or lower (almost no effect)),0 (Herbicidal ratio of 5% or lower (almost no effect)),–,0 (Herbicidal ratio of 5% or lower (almost no effect))
"COc1cc(Br)cc(C)c1C1=C(O)CC(CC(C)=O)C1=O (centres unmarked) [7-027, 2-(4-bromo-2-methoxy-6-methylphenyl)-3-hydroxy-5-(2-oxopropyl)cyclopent-2-enone]",–,–,–,0 (Herbicidal ratio of 5% or lower (almost no effect)),5 (Herbicidal ratio of 90% or more (almost completely withered)),–,5 (Herbicidal ratio of 90% or more (almost completely withered))
